According to the NIST ThermoML archive (doi:10.1021/acs.jced.8b00132):
Values joined by “and” are separate entries in the source; they are usually repeats but may differ in a detail not shown here. Equal entries are not always repeated.

Conditions: Liquid, transient hot wire

O=C(C(F)(F)C(F)(F)F)C(F)(C(F)(F)F)C(F)(F)F [dodecafluoro-2-methylpentan-3-one]
Conditions | thermal conductivity
192.97 K, 9415 kPa | 0.07862 W/m/K
192.97 K, 9417 kPa | 0.07861 W/m/K
192.98 K, 6038 kPa | 0.0783 W/m/K
192.98 K, 6049 kPa | 0.07834 W/m/K
192.99 K, 167 kPa | 0.07692 W/m/K
192.99 K, 173 kPa | 0.07695 W/m/K
193 K, 151 kPa | 0.07702 W/m/K
193 K, 154 kPa | 0.07718 W/m/K
193.29 K, 67553 kPa | 0.08802 W/m/K
193.29 K, 67565 kPa | 0.0877 W/m/K
193.3 K, 61029 kPa | 0.08639 W/m/K
193.31 K, 52610 kPa | 0.086 W/m/K
193.31 K, 52615 kPa | 0.08604 W/m/K
193.31 K, 61018 kPa | 0.08674 W/m/K
193.33 K, 44206 kPa | 0.08413 W/m/K
193.33 K, 44213 kPa | 0.08424 W/m/K
193.35 K, 36147 kPa | 0.08312 W/m/K
193.35 K, 36154 kPa | 0.08322 W/m/K
193.37 K, 28301 kPa | 0.08185 W/m/K
193.37 K, 28302 kPa | 0.08165 W/m/K
193.42 K, 20237 kPa | 0.08068 W/m/K
193.43 K, 20237 kPa | 0.08099 W/m/K
193.45 K, 13265 kPa | 0.07982 W/m/K
193.45 K, 13266 kPa | 0.07945 W/m/K
193.48 K, 6427 kPa | 0.07813 W/m/K
193.48 K, 6455 kPa | 0.07812 W/m/K
193.51 K, 179 kPa | 0.07701 W/m/K
193.52 K, 180 kPa | 0.07688 W/m/K
211.41 K, 165 kPa | 0.07448 W/m/K
211.41 K, 170 kPa | 0.07442 W/m/K
211.41 K, 5799 kPa | 0.07599 W/m/K
211.41 K, 5800 kPa | 0.0759 W/m/K
211.41 K, 12664 kPa | 0.07737 W/m/K
211.41 K, 12666 kPa | 0.07746 W/m/K
211.41 K, 19434 kPa | 0.07882 W/m/K and 0.07893 W/m/K
211.43 K, 26838 kPa | 0.08023 W/m/K
211.43 K, 26842 kPa | 0.08059 W/m/K
211.43 K, 34778 kPa | 0.08175 W/m/K
211.43 K, 34786 kPa | 0.0823 W/m/K
211.76 K, 52040 kPa | 0.08466 W/m/K
211.76 K, 52042 kPa | 0.08451 W/m/K
211.77 K, 60806 kPa | 0.08612 W/m/K
211.77 K, 60808 kPa | 0.0862 W/m/K
211.77 K, 67154 kPa | 0.087 W/m/K
211.78 K, 67150 kPa | 0.08734 W/m/K
211.8 K, 12660 kPa | 0.07728 W/m/K
211.8 K, 19446 kPa | 0.07881 W/m/K
211.8 K, 19450 kPa | 0.07869 W/m/K
211.81 K, 173 kPa | 0.07406 W/m/K
211.81 K, 5801 kPa | 0.07566 W/m/K
211.81 K, 5813 kPa | 0.07576 W/m/K
211.81 K, 12660 kPa | 0.0775 W/m/K
211.81 K, 26841 kPa | 0.07965 W/m/K
211.81 K, 26845 kPa | 0.08017 W/m/K
211.81 K, 34792 kPa | 0.08166 W/m/K
211.81 K, 34801 kPa | 0.08137 W/m/K
211.81 K, 43011 kPa | 0.08307 W/m/K
211.81 K, 43012 kPa | 0.0834 W/m/K
211.82 K, 163 kPa | 0.07354 W/m/K
212.17 K, 60783 kPa | 0.08526 W/m/K
212.17 K, 60795 kPa | 0.08562 W/m/K
212.17 K, 67130 kPa | 0.08706 W/m/K
212.18 K, 52048 kPa | 0.08429 W/m/K
212.18 K, 52063 kPa | 0.08422 W/m/K
212.18 K, 67138 kPa | 0.08699 W/m/K
212.23 K, 26847 kPa | 0.0801 W/m/K
212.23 K, 34793 kPa | 0.08106 W/m/K
212.23 K, 34794 kPa | 0.08097 W/m/K
212.23 K, 43021 kPa | 0.08227 W/m/K
212.24 K, 12668 kPa | 0.07725 W/m/K
212.24 K, 19437 kPa | 0.07855 W/m/K
212.24 K, 26845 kPa | 0.07971 W/m/K
212.25 K, 12667 kPa | 0.07727 W/m/K
212.26 K, 5796 kPa | 0.07549 W/m/K
212.27 K, 173 kPa | 0.0737 W/m/K
212.27 K, 5805 kPa | 0.07454 W/m/K
212.28 K, 168 kPa | 0.07378 W/m/K
212.61 K, 67097 kPa | 0.08653 W/m/K
212.61 K, 67117 kPa | 0.08664 W/m/K
212.62 K, 52074 kPa | 0.0837 W/m/K
212.62 K, 60785 kPa | 0.08529 W/m/K
212.62 K, 60787 kPa | 0.08543 W/m/K
212.63 K, 52063 kPa | 0.08349 W/m/K
212.68 K, 43009 kPa | 0.08278 W/m/K
